Measurements reported in ChEMBL document CHEMBL4483862, “Open-source discovery of chemical leads for next-generation chemoprotective antimalarials” (2018).

Test system: Plasmodium berghei
Experiment: Luciferase/luciferin-expressing antifolate-resistant parasites were used to infect a culture of HepG2 cells that were pre-incubated with compounds. Infected hepatocytes emit light due to the luciferase reaction. Assay results are presented as the percent inhibition of light emission compared to control. […]
Assay type: functional
Conditions: sporozoite; for IC90: read-out: LUCIFERASE INFECTION ASSAY - IC90
[1] = read-out: LUCIFERASE INFECTION ASSAY - IC50

In the case of `Cc1nn(S(=O)(=O)c2ccc(-c3ccccn3)s2)c(C)c1Br`, the IC50 [1] is reported as greater than 8.29 µM and the IC90 is reported as greater than 8.29 µM.
Compound `CC(OC(=O)c1ccccc1O)C(N)=O` (centres undefined) has an IC50 [1] greater than 10 µM and an IC90 greater than 10 µM.
Work on `COC(=O)c1ccccc1NC(=O)/C=C/c1ccc(N2CCCS2(=O)=O)cc1` yielded an IC50 [1] of 2.97 µM and an IC90 of 6.74 µM.
`COc1ccc(-c2cnc3cnc(-c4ccsc4)cn23)cc1` was tested, and the IC50 (HEPG2TOX_HILL_SLOPE 3.46, HEPG2TOX_R_SQUARED 0.703, PBLUC_HILL_SLOPE 8.9, PBLUC_R_SQUARED 0.737, read-out: LUCIFERASE INFECTION ASSAY - IC50) was 3.76 µM and the IC90 was 4.82 µM.
For `Cc1cccc(C(=O)N[C@H](C(=O)Nc2nc(-c3ccccn3)cs2)C(C)C)c1`, the IC50 (HEPG2TOX_HILL_SLOPE 1.86, HEPG2TOX_R_SQUARED 0.615, PBLUC_HILL_SLOPE 3.31, PBLUC_R_SQUARED 0.556, read-out: LUCIFERASE INFECTION ASSAY - IC50) was 2.03 µM and the IC90 was 3.94 µM.
Work on `CN(Cc1ccccc1Cl)C(=O)c1ccc(NC(=O)c2ccco2)cc1` yielded an IC50 (PBLUC_HILL_SLOPE 1.69, PBLUC_R_SQUARED 0.585, read-out: LUCIFERASE INFECTION ASSAY - IC50) of 7.96 µM and an IC90 greater than 10 µM.
`CC(Oc1ccc2ccc(=O)oc2c1)C(=O)N1CCc2ccccc21` (centres undefined) showed an IC50 (PBLUC_HILL_SLOPE 3.92, PBLUC_R_SQUARED 0.713, read-out: LUCIFERASE INFECTION ASSAY - IC50) of 3.58 µM and an IC90 of 6.27 µM.
In the case of `Nc1nc2c(C(=O)c3cccs3)nnn2c2ccc(Cl)cc12`, the IC50 (FFLUC_HILL_SLOPE 1.53, FFLUC_R_SQUARED 0.767, PBLUC_HILL_SLOPE 0.914, PBLUC_R_SQUARED 0.801, read-out: LUCIFERASE INFECTION ASSAY - IC50) is reported as 0.0442 µM and the IC90 is reported as 0.489 µM.
For `CC(C)(C)c1cc(C(=O)NNC(=S)Nc2ccccc2)n(Cc2ccc(Cl)cc2Cl)n1`, the IC50 (FFLUC_HILL_SLOPE 12.6, FFLUC_R_SQUARED 0.389, HEPG2TOX_HILL_SLOPE 2.18, HEPG2TOX_R_SQUARED 0.945, PBLUC_HILL_SLOPE 8.72, PBLUC_R_SQUARED 0.517, read-out: LUCIFERASE INFECTION ASSAY - IC50) was 3.51 µM and the IC90 was 4.51 µM.
Work on `CCNc1nnc(SC(C)C(=O)Nc2ccc(OC(F)F)cc2)s1` (centres undefined) yielded an IC50 [1] greater than 10 µM and an IC90 greater than 10 µM.
`C/C(=N\NC(=O)c1ccc(N/N=C(\C)c2ccccc2Br)cc1)c1ccccc1Br` showed an IC50 [1] greater than 10 µM and an IC90 greater than 10 µM.
In the case of `COc1ccccc1C(=O)Nc1c(C#N)cnn1-c1nc(C)cc(C)n1`, the IC50 (PBLUC_HILL_SLOPE 2.98, PBLUC_R_SQUARED 0.592, read-out: LUCIFERASE INFECTION ASSAY - IC50) is reported as 3.8 µM and the IC90 is reported as 7.94 µM.
Work on `Cc1cc(O)c(CN2CCN(C(=O)C34CC5CC(CC(C5)C3)C4)CC2)cc1C` yielded an IC50 [1] greater than 10 µM and an IC90 greater than 10 µM.
`Cc1ccc(/C=C2\CCc3c2nc2ccccc2c3C(=O)OCc2cccc(S(=O)(=O)N(C)C)c2)cc1` gave an IC50 (PBLUC_HILL_SLOPE 0.892, PBLUC_R_SQUARED 0.634, read-out: LUCIFERASE INFECTION ASSAY - IC50) of 1.2 µM and an IC90 greater than 10 µM.
With `CCOc1ccc(S(=O)(=O)/N=C2\C=C3N(CCO)CCOC3(O)c3ccccc32)cc1` (centres undefined) the IC50 (PBLUC_HILL_SLOPE 3.7, PBLUC_R_SQUARED 0.815, read-out: LUCIFERASE INFECTION ASSAY - IC50) was 7.21 µM and the IC90 was greater than 10 µM.
`O=C1C(=C2SCCCS2)CC/C1=C\c1ccccc1` was tested, and the IC50 (FFLUC_HILL_SLOPE 1.05, FFLUC_R_SQUARED 0.81, PBLUC_HILL_SLOPE 0.851, PBLUC_R_SQUARED 0.668, read-out: LUCIFERASE INFECTION ASSAY - IC50) was 0.433 µM and the IC90 was 5.73 µM.
`O=c1c2c(-c3ccccc3)csc2nc2n1CC/C2=C\c1cccc(C(F)(F)F)c1` showed an IC50 (FFLUC_HILL_SLOPE 50.3, FFLUC_R_SQUARED 0.583, read-out: LUCIFERASE INFECTION ASSAY - IC50) greater than 10 µM and an IC90 greater than 10 µM.
`c1ccc(-c2csc3nc(-c4ccccn4)nc(Sc4nnc(-c5ccco5)o4)c23)cc1` was tested, and the IC50 [1] was greater than 10 µM and the IC90 was greater than 10 µM.
`Cc1ccccc1CN1CCN2C=C(C(=O)Nc3ccc(OCc4ccccc4)cc3)OC2=NC1=O` gave an IC50 [1] greater than 10 µM and an IC90 greater than 10 µM.
Compound `O=C1N(Cc2ccccc2)c2ccccc2C12Oc1ccc(Br)cc1-c1cc(-c3ccccc3)nn12` (centres undefined) has an IC50 [1] of 9.29 µM and an IC90 greater than 10 µM.
With `CSc1sc(C#N)c2c1/C(=N/OC(=O)c1ccc(Cl)cc1)CCC2` the IC50 (FFLUC_HILL_SLOPE 4.66, FFLUC_R_SQUARED 0.795, read-out: LUCIFERASE INFECTION ASSAY - IC50) was greater than 8.76 µM and the IC90 was greater than 8.76 µM.
For `Cc1cc(Cl)ccc1S(=O)(=O)N(Cc1ccncc1)C1CC1`, the IC50 (PBLUC_HILL_SLOPE 1.42, PBLUC_R_SQUARED 0.462, read-out: LUCIFERASE INFECTION ASSAY - IC50) was 1.69 µM and the IC90 was 7.99 µM.
